The values that follow come from patent publication US20080161407A1, “METHODS FOR TREATING METABOLIC SYNDROME” (Abbott Laboratories, priority 2003, published 2008).

Read-outs that look alike come from different tables or passages of the source.

Assay [1] in a line: Pooled analysis of double-blind, placebo-controlled, non-diabetic studies of at least 6 months in subjects with metabolic syndrome at baseline. It counts as in vivo, human. To be noted: change from baseline to latest assessment after month 6 up to month 12; compared to placebo. The source says:
(§1) The benefits of sibutramine therapy can be extended to subjects with metabolic syndrome. The treatment effect of sibutramine on subjects that had metabolic syndrome at study entry in the STORM trial and by a pooled analysis of double-blind, placebo-controlled, non-diabetic studies of at least 6 months duration were studied. Subjects were identified who had increased abdominal obesity (waist circumference), decreased HDL cholesterol, and elevated triglycerides (TG) at baseline, and who also completed at least 6 months of sibutramine treatment (pooled analysis subjects: 266 sibutramine, 134 placebo; STORM: 80 sibutramine). Since all subjects in the STORM trial received sibutramine for the first 6 months of the study, only subjects subsequently randomized to receive sibutramine for a longer duration were included. The analyses for each variable were based on change from baseline to latest assessment after month 6, up to and including month 12.

A short description of assay [2]: STORM trial, subjects that had metabolic syndrome at study entry. Type of assay: in vivo, human. As to conditions: change from baseline to latest assessment after month 6 up to month 12.
Description: as §1

The conditions of assay [3]: compared to placebo; cited from earlier work.
The conditions of assay [4]: cited from earlier work.
The mark [5] stands for this setting: subjects who lost and maintained weight, compared to baseline values of all subjects.

Regarding `CC(C)CC(N(C)C)C1(c2ccc(Cl)cc2)CCC1` (centres unmarked) [sibutramine, N,N-dimethyl-1-[1-(4-chlorophenyl)cyclobutyl]-3-methylbutylamine], in assay [1], the HDL entry is “clinically and statistically significant improvements”; the TG result is “clinically and statistically significant improvements”; the waist circumference entry was “clinically and statistically significant improvements”; the weight loss entry is “clinically and statistically significant improvements”. In assay [2], the HDL entry is given as “favorable changes”, the TG entry is recorded as “favorable changes”, the waist circumference result was “favorable changes” and the weight loss result is “favorable changes”. For the same compound, in assay [3], the HDL cholesterol result is “significant improvements”, the “fasting blood glucose levels” value is given as “not significantly changed”, the insulin levels entry is given as “significant improvements” and the triglyceride levels entry was “significant improvements”. In assay [3], the “waist circumference (a measure for abdominal obesity)” value is recorded as “significant improvements”. For the same compound, the “subjects who maintained at least 80% of their month six weight loss” value in assay [4] (at two years, subjects who completed the trial, placebo 16%) is recorded as 43%. Also, in assay [4] (at two years), the “mean fasting insulin levels” value is “reduced”. For the same compound, in assay [4] (end of two years of treatment, placebo 21%), the “subjects who maintained ≧10% weight reduction” value is on record as 46%. Moreover, the “subjects who maintained ≧5% weight reduction” value in assay [4] (end of two years of treatment, placebo 44%) is given as 69%. Further, the mean weight loss in assay [4] (first six months of sibutramine treatment) was 26 lbs. The “subjects who achieved a ≧5% weight reduction” value in assay [4] (of the 499 subjects who completed the first six months, sibutramine with reduced calorie diet and increased physical activity) is 94%. For the same compound, in assay [4] (setting [5]), the HDL cholesterol entry was “clinically and statistically significant improvements”; the triglycerides result is “clinically and statistically significant improvements”; the waist circumference entry is “clinically and statistically significant improvements”. For the same compound, in assay [4] (subjects who lost and maintained weight), the impaired fasting glucose entry was “significantly changed”.
